Results from patent US11771709B2, “ALK protein degradation agent and anti-tumor application thereof” (ShanghaiTech University, priority 2017, dated 2023).

What was measured:
SR (NPM-ALK) cells = assay: Growth inhibition IC50 in ALCL SR cells (CCK8/WST, 72 hours); format: cell-based; details: SR cells, WST
[1] = target: T1, ALK protein in H3122 (EML4-ALK) cells (Homo sapiens, UniProt Q9UM73); assay: Western blot of ALK protein level (degradation, DC50), ALK phosphorylation and downstream signaling in H3122 cells; format: cell-based; details: for DC50: ALK protein degradation in H3122 cells; for phosphorylation of AKT and ERK / ALK protein level / degradation: H3122 cells, western blot; for ALK protein level / degradation: up to 500 nM
T1 construct: EML4 (Echinoderm microtubule-associated protein-like 4, Q9HC35) fusion partner, variant 1; host or cells: NCI-H3122 lung adenocarcinoma cells; the other entry of the earlier key: EML4 (Q9HC35, Echinoderm microtubule-associated protein-like 4)

[2] = 72 h, Brigatinib-based PROTAD molecules (Table 3)
[3] = Alectinib based ALK PROTAD compounds (Table 4)

T1 sequence (Q9UM73 with tags, fused parts or gaps): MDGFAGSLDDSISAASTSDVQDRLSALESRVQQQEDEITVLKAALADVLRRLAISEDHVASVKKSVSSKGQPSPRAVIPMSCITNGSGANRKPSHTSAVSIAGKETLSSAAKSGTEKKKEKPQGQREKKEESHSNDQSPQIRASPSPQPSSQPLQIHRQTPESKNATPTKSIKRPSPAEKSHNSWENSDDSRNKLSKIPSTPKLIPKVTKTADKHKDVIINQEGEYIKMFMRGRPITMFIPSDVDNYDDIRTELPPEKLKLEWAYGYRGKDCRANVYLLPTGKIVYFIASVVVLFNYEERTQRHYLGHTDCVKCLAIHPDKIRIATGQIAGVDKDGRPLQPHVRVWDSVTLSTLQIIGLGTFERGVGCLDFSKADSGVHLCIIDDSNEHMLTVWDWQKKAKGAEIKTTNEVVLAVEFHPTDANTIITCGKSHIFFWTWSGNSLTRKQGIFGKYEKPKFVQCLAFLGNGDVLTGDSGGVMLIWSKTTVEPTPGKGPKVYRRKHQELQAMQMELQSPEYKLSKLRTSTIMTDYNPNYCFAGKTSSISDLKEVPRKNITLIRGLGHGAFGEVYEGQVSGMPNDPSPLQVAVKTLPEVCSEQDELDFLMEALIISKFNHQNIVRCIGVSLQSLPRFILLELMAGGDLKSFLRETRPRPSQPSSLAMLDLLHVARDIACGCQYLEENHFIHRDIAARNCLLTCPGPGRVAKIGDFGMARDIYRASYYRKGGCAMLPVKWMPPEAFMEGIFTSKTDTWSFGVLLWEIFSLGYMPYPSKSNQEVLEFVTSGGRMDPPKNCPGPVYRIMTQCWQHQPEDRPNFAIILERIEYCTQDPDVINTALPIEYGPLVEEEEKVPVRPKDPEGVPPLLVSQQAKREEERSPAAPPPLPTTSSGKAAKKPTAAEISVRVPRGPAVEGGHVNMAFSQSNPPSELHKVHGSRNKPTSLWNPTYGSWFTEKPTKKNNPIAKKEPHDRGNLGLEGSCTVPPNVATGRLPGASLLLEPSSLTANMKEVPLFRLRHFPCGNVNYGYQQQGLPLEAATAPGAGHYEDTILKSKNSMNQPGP

Compound	DC50 [1]	phosphorylation of AKT and ERK [1]	ALK protein level / degradation [1]	IC50 (SR (NPM-ALK) cells; [2])	IC50 (SR (NPM-ALK) cells; [3])
COc1cc(N2CCC(NC(=O)CCOCCOCCNc3cccc4c3C(=O)N(C3CCC(=O)NC3=O)C4=O)CC2)ccc1Nc1ncc(Cl)c(Nc2ccccc2P(C)(C)=O)n1 (stereo not drawn) [SIAIS151114, N-(1-(4-((5-chloro-4-((2-(dimethylphosphoryl)phenyl)amino)pyrimidin-2-yl)amino)-3-methoxyphenyl)piperidin-4-yl)-3-(2-(2-((2-(2,6-dioxopiperidin-3-yl)-1,3-dioxoisoindolin-4-yl)amino)ethoxy)ethoxy)propenamide]	100 to 500 nM			10.9 ± 7.5 nM	
COc1cc(N2CCC(NC(=O)CCOCCOCCOCCNc3cccc4c3C(=O)N(C3CCC(=O)NC3=O)C4=O)CC2)ccc1Nc1ncc(Cl)c(Nc2ccccc2P(C)(C)=O)n1 (stereo not drawn) [SIAIS151115, N-(1-(4-((5-chloro-4-((2-(dimethylphosphoryl)phenyl)amino)pyrimidin-2-yl)amino)-3-methoxyphenyl)piperidin-4-yl)-3-(2-(2-(2-((2-(2,6-dioxopiperidin-3-yl)-1,3-dioxoisoindolin-4-yl)amino)ethoxy)ethoxy)ethoxy)propenamide]	100 to 500 nM			8 ± 3.2 nM	
COc1cc(N2CCC(NC(=O)CCOCCOCCOCCOCCNc3cccc4c3C(=O)N(C3CCC(=O)NC3=O)C4=O)CC2)ccc1Nc1ncc(Cl)c(Nc2ccccc2P(C)(C)=O)n1 (stereo not drawn) [SIAIS151116, N-(1-(4-((5-chloro-4-((2-(dimethylphosphoryl)phenyl)amino)pyrimidin-2-yl)amino)-3-methoxyphenyl)piperidin-4-yl)-1-((2-(2,6-dioxopiperidin-3-yl)-1,3-dioxoisoindolin-4-yl)amino)-3,6,9,12-tetraoxapentadecan-15-amide]	100 to 500 nM			15.3 ± 9.8 nM	
COc1cc(N2CCC(NC(=O)CCCCNc3cccc4c3C(=O)N(C3CCC(=O)NC3=O)C4=O)CC2)ccc1Nc1ncc(Cl)c(Nc2ccccc2P(C)(C)=O)n1 (stereo not drawn) [SIAIS151119, N-(1-(4-((5-chloro-4-((2-(dimethylphosphoryl)phenyl)amino)pyrimidin-2-yl)amino)-3-methoxyphenyl)piperidin-4-yl)-5-((2-(2,6-dioxopiperidin-3-yl)-1,3-dioxoisoindolin-4-yl)amino)pentanamide]	100 to 500 nM			1.6 ± 1 nM	
COc1cc(N2CCC(NC(=O)CCNc3cccc4c3C(=O)N(C3CCC(=O)NC3=O)C4=O)CC2)ccc1Nc1ncc(Cl)c(Nc2ccccc2P(C)(C)=O)n1 (stereo not drawn) [SIAIS151121, N-(1-(4-((5-chloro-4-((2-(dimethylphosphoryl)phenyl)amino)pyrimidin-2-yl)amino)-3-methoxyphenyl)piperidin-4-yl)-3-((2-(2,6-dioxopiperidin-3-yl)-1,3-dioxoisoindolin-4-yl)amino)propenamide]	100 to 500 nM			20.4 ± 8.5 nM	
COc1cc(N2CCC(NC(=O)CCOCCOCCC(=O)N[C@H](C(=O)N3C[C@H](O)C[C@H]3C(=O)NCc3ccc(-c4scnc4C)cc3)C(C)(C)C)CC2)ccc1Nc1ncc(Cl)c(Nc2ccccc2P(C)(C)=O)n1 [SIAIS151124, (2S,4R)-1-((S)-2-(3-(2-(3-((1-(4-((5-chloro-4-((2-(dimethylphosphoryl)phenyl)amino)pyrimidin-2-yl)amino)-3-methoxyphenyl)piperidin-4-yl)amino)-3-oxopropoxy)ethoxy)propanamido)-3,3-dimethylbutanoyl)-4-hydroxy-N-(4-(4-methylthiazol-5-yl)benzyl)pyrrolidine-2-carboxamide]	100 to 500 nM			76.9 ± 15.9 nM	
COc1cc(N2CCC(NC(=O)CCOCCOCCOCCC(=O)N[C@H](C(=O)N3C[C@H](O)C[C@H]3C(=O)NCc3ccc(-c4scnc4C)cc3)C(C)(C)C)CC2)ccc1Nc1ncc(Cl)c(Nc2ccccc2P(C)(C)=O)n1 [SIAIS151125, (2S,4R)-1-((S)-2-(tert-butyl)-16-((1-(4-((5-chloro-4-((2-(dimethylphosphoryl)phenyl)amino)pyrimidin-2-yl)amino)-3-methoxyphenyl)piperidin-4-yl)amino)-4,16-dioxo-7,10,13-trioxa-3-azahexadecanoyl)-4-hydroxy-N-(4-(4-methylthiazol-5-yl)benzyl)pyrrolidine-2-carboxamide]	100 to 500 nM			61.9 ± 30.5 nM	
COc1cc(N2CCC(NC(=O)CCOCCOCCOCCOCCC(=O)N[C@H](C(=O)N3C[C@H](O)C[C@H]3C(=O)NCc3ccc(-c4scnc4C)cc3)C(C)(C)C)CC2)ccc1Nc1ncc(Cl)c(Nc2ccccc2P(C)(C)=O)n1 [SIAIS151126, N1-(1-(4-((5-chloro-4-((2-(dimethylphosphoryl)phenyl)amino)pyrimidin-2-yl)amino)-3-methoxyphenyl)piperidin-4-yl)-N16-((S)-1-((2S,4R)-4-hydroxy-2-((4-(4-methylthiazol-5-yl)benzyl)carbamoyl)pyrrolidin-1-yl)-3,3-dimethyl-1-oxobutan-2-yl)-4,7,10,13-tetraoxahexadecanediamide]	100 to 500 nM			31.9 ± 11.9 nM	
COc1cc(N2CCC(NC(=O)COCCOCC(=O)N[C@H](C(=O)N3C[C@H](O)C[C@H]3C(=O)NCc3ccc(-c4scnc4C)cc3)C(C)(C)C)CC2)ccc1Nc1ncc(Cl)c(Nc2ccccc2P(C)(C)=O)n1 [SIAIS151128, (2S,4R)-1-((S)-2-(2-(2-(2-((1-(4-((5-chloro-4-((2-(dimethylphosphoryl)phenyl)amino)pyrimidin-2-yl)amino)-3-methoxyphenyl)piperidin-4-yl)amino)-2-oxoethoxy)ethoxy)acetamido)-3,3-dimethylbutanoyl)-4-hydroxy-N-(4-(4-methylthiazol-5-yl)benzyl)pyrrolidine-2-carboxamide]	100 to 500 nM			6.3 ± 0.2 nM	
CCc1cc2c(cc1N1CCN(C(=O)CCOCCOCCOCCOCCNc3cccc4c3C(=O)N(C3CCC(=O)NC3=O)C4=O)CC1)C(C)(C)c1[nH]c3cc(C#N)ccc3c1C2=O (stereo not drawn) [SIAIS164014, 8-(4-(1-((2-(2,6-dioxopiperidin-3-yl)-1,3-dioxoisoindolin-4-yl)amino)-3,6,9,12-tetraoxapentadecan-15-oyl)piperazin-1-yl)-9-ethyl-6,6-dimethyl-11-oxo-6,11-dihydro-5H-benzo[b]carbazole-3-carbonitrile]	100 to 500 nM				81 nM

Now from value to molecule, other results behind:

DC50 [1]	phosphorylation of AKT and ERK [1]	ALK protein level / degradation [1]	Compound	IC50 (SR (NPM-ALK) cells; [2])	IC50 (SR (NPM-ALK) cells; [3])
20 to 100 nM			COc1cc(N2CCC(NC(=O)CNc3cccc4c3C(=O)N(C3CCC(=O)NC3=O)C4=O)CC2)ccc1Nc1ncc(Cl)c(Nc2ccccc2P(C)(C)=O)n1 (stereo not drawn) [SIAIS151120, N-(1-(4-((5-chloro-4-((2-(dimethylphosphoryl)phenyl)amino)pyrimidin-2-yl)amino)-3-methoxyphenyl)piperidin-4-yl)-2-((2-(2,6-dioxopiperidin-3-yl)-1,3-dioxoisoindolin-4-yl)amino)acetamide]	11.4 ± 7.8 nM	
20 to 100 nM			COc1cc(N2CCC(NC(=O)CCOCCOCCOCCOCCOCCC(=O)N[C@H](C(=O)N3C[C@H](O)C[C@H]3C(=O)NCc3ccc(-c4scnc4C)cc3)C(C)(C)C)CC2)ccc1Nc1ncc(Cl)c(Nc2ccccc2P(C)(C)=O)n1 [SIAIS151127, N1-(1-(4-((5-chloro-4-((2-(dimethylphosphoryl)phenyl)amino)pyrimidin-2-yl)amino)-3-methoxyphenyl)piperidin-4-yl)-N19-((S)-1-((2S,4R)-4-hydroxy-2-((4-(4-methylthiazol-5-yl)benzyl)carbamoyl)pyrrolidin-1-yl)-3,3-dimethyl-1-oxobutan-2-yl)-4,7,10,13,16-pentaoxanonadecanediamide]	36.4 ± 23.5 nM	
1 to 10 nM	inhibited	reduced the protein level of ALK protein	CCc1cc2c(cc1N1CCN(C(=O)CCCNc3cccc4c3C(=O)N(C3CCC(=O)NC3=O)C4=O)CC1)C(C)(C)c1[nH]c3cc(C#N)ccc3c1C2=O (stereo not drawn) [SIAIS164024, 8-(4-(4-((2-(2,6-dioxopiperidin-3-yl)-1,3-dioxoisoindolin-4-yl)amino)butanoyl)piperazin-1-yl)-9-ethyl-6,6-dimethyl-11-oxo-6,11-dihydro-5H-benzo[b]carbazole-3-carbonitrile]		35.8 nM
1 to 10 nM	inhibited	reduced the protein level of ALK protein	CCc1cc2c(cc1N1CCN(C(=O)CCCCCNc3cccc4c3C(=O)N(C3CCC(=O)NC3=O)C4=O)CC1)C(C)(C)c1[nH]c3cc(C#N)ccc3c1C2=O (stereo not drawn) [SIAIS164026, 8-(4-(6-((2-(2,6-dioxopiperidin-3-yl)-1,3-dioxoisoindolin-4-yl)amino)hexanoyl)piperazin-1-yl)-9-ethyl-6,6-dimethyl-11-oxo-6,11-dihydro-5H-benzo[b]carbazole-3-carbonitrile]		148 nM
20 to 100 nM			CCc1cc2c(cc1N1CCN(C(=O)CCOCCOCCC(=O)N[C@H](C(=O)N3C[C@H](O)C[C@H]3C(=O)NCc3ccc(-c4scnc4C)cc3)C(C)(C)C)CC1)C(C)(C)c1[nH]c3cc(C#N)ccc3c1C2=O [SIAIS164036, (2S,4R)-1-((S)-2-(3-(2-(3-(4-(3-cyano-9-ethyl-6,6-dimethyl-11-oxo-6,11-dihydro-5H-benzo[b]carbazol-8-yl)piperazin-1-yl)-3-oxopropoxy)ethoxy)propanamido)-3,3-dimethylbutanoyl)-4-hydroxy-N-(4-(4-methylthiazol-5-yl)benzyl)pyrrolidine-2-carboxamide]		132 nM
20 to 100 nM			CCc1cc2c(cc1N1CCN(C(=O)CCCC(=O)N[C@H](C(=O)N3C[C@H](O)C[C@H]3C(=O)NCc3ccc(-c4scnc4C)cc3)C(C)(C)C)CC1)C(C)(C)c1[nH]c3cc(C#N)ccc3c1C2=O [SIAIS164094, (2S,4R)-1-((S)-2-(5-(4-(3-cyano-9-ethyl-6,6-dimethyl-11-oxo-6,11-dihydro-5H-benzo[b]carbazol-8-yl)piperazin-1-yl)-5-oxopentanamido)-3,3-dimethylbutanoyl)-4-hydroxy-N-(4-(4-methylthiazol-5-yl)benzyl)pyrrolidine-2-carboxamide]		124 nM
